Assay results taken from PubChem BioAssay AID1963858 (Molecular Pharmacology Branch, DTP, NCI, 2024).

Test system: HOP-62 multicell spheroids with HUVEC/MSC, viability
Assay: Anticancer human tumor HOP-62 cell line growth inhibition [KRAS2];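 further: viability read after a week of compound exposure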;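 on viability, T/C: 100% = DMSO vehicle-treated spheroids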
Conditions: for IC50: curve of first compound; for viability, T/C: stronger effect = lower value
Method in brief: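 Combination screen of spheroid viability in tumor-cell co-cultures with endothelial (HUVEC) and mesenchymal stem cell stroma. Each agent was tested in half-log dilutions, topping at clinical Cmax or at 10 microM without a known Cmax.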

[1] = second compound 0.1 µM, first compound 0.0316 µM
[2] = second compound 0.316 µM, first compound 0.0316 µM
[3] = second compound 1 µM, first compound 0.0316 µM
[4] = second compound 3.16 µM, first compound 0.0316 µM
[5] = second compound 10 µM, first compound 0.0316 µM

CC(=O)Nc1cccc(-n2c(=O)n(C3CC3)c(=O)c3c(Nc4ccc(I)cc4F)n(C)c(=O)c(C)c32)c1 + COc1cc2nc(C)nc(NC(C)c3cc(N)cc(C(F)(F)F)c3)c2cc1OC1CCOC1 gave an IC50 (second compound 0.1 µM) of 2.5 nM, an IC50 (second compound 0.316 µM) of 3.01 nM and an IC50 (second compound 1 µM) of 2.01 nM. The IC50 (second compound 3.16 µM) was 0.494 nM, the IC50 (second compound 10 µM) was less than 0.1 nM and the viability, T/C (second compound 0.1 µM, first compound 0.0001 µM) was 111%. It also gave a viability, T/C (second compound 0.1 µM, first compound 0.000316 µM) of 79%, a viability, T/C (second compound 0.1 µM, first compound 0.001 µM) of 77.8% and a viability, T/C (second compound 0.1 µM, first compound 0.00316 µM) of 42.5%. It also gave a viability, T/C (second compound 0.1 µM, first compound 0.01 µM) of 25.5%, a viability, T/C [1] of 23.8% and a viability, T/C (second compound 0.316 µM, first compound 0.0001 µM) of 85.2%. It also gave a viability, T/C (second compound 0.316 µM, first compound 0.000316 µM) of 91.4%, a viability, T/C (second compound 0.316 µM, first compound 0.001 µM) of 79.9% and a viability, T/C (second compound 0.316 µM, first compound 0.00316 µM) of 49.2%. For the same compound, the viability, T/C (second compound 0.316 µM, first compound 0.01 µM) was 24.9%, the viability, T/C [2] was 24.5% and the viability, T/C (second compound 1 µM, first compound 0.0001 µM) was 84.1%. For the same compound, the viability, T/C (second compound 1 µM, first compound 0.000316 µM) was 75.8%, the viability, T/C (second compound 1 µM, first compound 0.001 µM) was 75.5% and the viability, T/C (second compound 1 µM, first compound 0.00316 µM) was 33.6%. It also gave a viability, T/C (second compound 1 µM, first compound 0.01 µM) of 24.9%, a viability, T/C [3] of 25.2% and a viability, T/C (second compound 3.16 µM, first compound 0.0001 µM) of 58.1%. For the same compound, the viability, T/C (second compound 3.16 µM, first compound 0.000316 µM) was 50.5%, the viability, T/C (second compound 3.16 µM, first compound 0.001 µM) was 45.8% and the viability, T/C (second compound 3.16 µM, first compound 0.00316 µM) was 29.2%. For the same compound, the viability, T/C (second compound 3.16 µM, first compound 0.01 µM) was 21.9%, the viability, T/C [4] was 22.7% and the viability, T/C (second compound 10 µM, first compound 0.0001 µM) was 39.6%. The viability, T/C (second compound 10 µM, first compound 0.000316 µM) was 33.7%, the viability, T/C (second compound 10 µM, first compound 0.001 µM) was 31.4% and the viability, T/C (second compound 10 µM, first compound 0.00316 µM) was 27.8%. The viability, T/C (second compound 10 µM, first compound 0.01 µM) was 25.3% and the viability, T/C [5] was 22.1%.

For CC(C)NCC(C(=O)N1CCN(c2ncnc3c2C(C)CC3O)CC1)c1ccc(Cl)cc1 (stereo not given) + CNCc1ccccc1-c1csc(C(C)Nc2nc(C)nc3cc(OC)c(OC)cc23)c1, the IC50 (second compound 0.1 µM) was 844 nM, the IC50 (second compound 0.316 µM) was 608 nM and the IC50 (second compound 1 µM) was 212 nM. The IC50 (second compound 3.16 µM) was less than 31.6 nM, the IC50 (second compound 10 µM) was less than 31.6 nM and the viability, T/C [1] was 119%. It also gave a viability, T/C (second compound 0.1 µM, first compound 0.1 µM) of 83%, a viability, T/C (second compound 0.1 µM, first compound 0.316 µM) of 83.4% and a viability, T/C (second compound 0.1 µM, first compound 1 µM) of 45.9%. For the same compound, the viability, T/C (second compound 0.1 µM, first compound 3.16 µM) was 17.2%, the viability, T/C (second compound 0.1 µM, first compound 10 µM) was 10.3% and the viability, T/C [2] was 89.5%. It also gave a viability, T/C (second compound 0.316 µM, first compound 0.1 µM) of 78.5%, a viability, T/C (second compound 0.316 µM, first compound 0.316 µM) of 73.7% and a viability, T/C (second compound 0.316 µM, first compound 1 µM) of 32.4%. The viability, T/C (second compound 0.316 µM, first compound 3.16 µM) was 13.4%, the viability, T/C (second compound 0.316 µM, first compound 10 µM) was 10.2% and the viability, T/C [3] was 81.3%. It also gave a viability, T/C (second compound 1 µM, first compound 0.1 µM) of 74.8%, a viability, T/C (second compound 1 µM, first compound 0.316 µM) of 35.6% and a viability, T/C (second compound 1 µM, first compound 1 µM) of 23.4%. It also gave a viability, T/C (second compound 1 µM, first compound 3.16 µM) of 16.9%, a viability, T/C (second compound 1 µM, first compound 10 µM) of 9.94% and a viability, T/C [4] of 0.41%. The viability, T/C (second compound 3.16 µM, first compound 0.1 µM) was 0.71%, the viability, T/C (second compound 3.16 µM, first compound 0.316 µM) was 0.27% and the viability, T/C (second compound 3.16 µM, first compound 1 µM) was 0.47%. The viability, T/C (second compound 3.16 µM, first compound 3.16 µM) was 0.17%, the viability, T/C (second compound 3.16 µM, first compound 10 µM) was 0.26% and the viability, T/C [5] was 0.24%. For the same compound, the viability, T/C (second compound 10 µM, first compound 0.1 µM) was 0.26%, the viability, T/C (second compound 10 µM, first compound 0.316 µM) was 0.26% and the viability, T/C (second compound 10 µM, first compound 1 µM) was 0.25%. It also gave a viability, T/C (second compound 10 µM, first compound 3.16 µM) of 0.23% and a viability, T/C (second compound 10 µM, first compound 10 µM) of 0.33%.
